In US20040010001A1, “Methods and compositions for modulating cell proliferation and cell death” (priority 1999, published 2004):
Counter-ions that a name gives are not always drawn. Like-named read-outs stand apart in the source and are kept apart here.

Test system: Human prostate PC3 tumor cells
Assay: aFGF/bFGF-induced resistance and reversal by suramin, sulforhodamine B assay
Assay type: cell-based
Protocol: The experimental conditions are described briefly below. […] Cell number was measured using the sulforhodamine B assay which measures the total protein concentration. […] The FGF-induced resistance was dependent on the FGF concentrations, with a higher resistance at higher FGF concentrations.

[1] = Homo sapiens, read-out: IC50, Control (drug treatment only, without FGF treatment), No suramin, drug 96 hours
[2] = Homo sapiens, read-out: IC50, aFGF 0.3 ng/ml + bFGF 1 ng/ml, No suramin, FGF pretreatment 96 hours, drug 96 hours
[3] = Homo sapiens, read-out: IC50, aFGF 1 ng/ml + bFGF 3 ng/ml, No suramin, FGF pretreatment 96 hours, drug 96 hours
[4] = no suramin, relative to control
[5] = read-out: IC50, Control (without FGF treatment), Suramin, 15 μM, drug 96 hours with 15 μM suramin
[6] = read-out: IC50, aFGF 0.3 ng/ml + bFGF 1 ng/ml, With suramin, FGF pretreatment 96 hours, drug 96 hours with 15 micromolar suramin
[7] = read-out: IC50, aFGF 1 ng/ml + bFGF 3 ng/ml, With suramin, FGF pretreatment 96 hours, drug 96 hours with 15 micromolar suramin
[8] = read-out: IC50, Control (drug treatment only, without FGF treatment), No suramin, drug 96 hours
[9] = read-out: IC50, aFGF 0.3 ng/ml + bFGF 1 ng/ml, No suramin, FGF pretreatment 96 hours, drug 96 hours
[10] = read-out: IC50, aFGF 1 ng/ml + bFGF 3 ng/ml, No suramin, FGF pretreatment 96 hours, drug 96 hours
[11] = Homo sapiens, 96 h, read-out: IC50, Control (drug treatment only, without FGF treatment), No suramin

Structure (SMILES) | IC50 [1] | IC50 [2] | IC50 [3] | Resistance, Folds, aFGF 0.3 ng/ml + bFGF 1 ng/ml [4] | Resistance, Folds, aFGF 1 ng/ml + bFGF 3 ng/ml [4] | IC50 [5] | IC50 [6] | IC50 [7] | IC50 [8] | IC50 [9] | IC50 [10] | Resistance, Folds, aFGF 0.3 ng/ml + bFGF 1 ng/ml | Resistance, Folds, aFGF 1 ng/ml + bFGF 3 ng/ml | IC50 [11] | IC50 (Homo sapiens, 96 h, read-out: IC50, aFGF 0.3 ng/ml + bFGF 1 ng/ml, No suramin) | IC50 (Homo sapiens, 96 h, read-out: IC50, aFGF 1 ng/ml + bFGF 3 ng/ml, No suramin) | IC50 (read-out: IC50, Control (without FGF treatment), Suramin, 15 μM) | IC50 (read-out: IC50, aFGF 0.3 ng/ml + bFGF 1 ng/ml, With suramin) | IC50 (read-out: IC50, aFGF 1 ng/ml + bFGF 3 ng/ml, With suramin)
NC(=O)c1[nH]nc([C@@H]2O[C@H](CO)[C@@H](O)[C@H]2O)c1O [Pyrazofurin] | 3.38 µM | 4.07 µM | 11.1 µM | 1.20 Folds | 3.27 Folds | 3.83 µM | 3.65 µM | 3.8 µM |  |  |  |  |  |  |  |  |  |  | 
Nc1ncnc2c1ncn2[C@@H]1O[C@H](CO)[C@@H](O)[C@@H]1O [Adenosine arabinoside (Ara-A), Adenosine arabinoside] |  |  |  | 1.56 Folds | 2.13 Folds | 22.7 µM | 19 µM | 21 µM | 21.5 µM | 33.6 µM | 45.7 µM |  |  |  |  |  |  |  | 
S=P(N1CC1)(N1CC1)N1CC1 [Thiotepa] |  |  |  |  |  |  |  |  |  |  |  | 4.96 Folds | 8.61 Folds | 3.85 µM | 19.1 µM | 33.2 µM | 4.07 µM | 4.09 µM | 4.17 µM
N[C@@H](CN(O)N=O)C(=O)O [Alanosine] | 2.06 µM | 4.18 µM | 7.08 µM | 2.03 Folds | 3.44 Folds | 2.15 µM | 2.4 µM | 2.12 µM |  |  |  |  |  |  |  |  |  |  | 
OC[C@H]1O[C@@H](n2cnc3c2NC=NC[C@H]3O)C[C@@H]1O [Pentostatin] |  |  |  |  |  |  |  |  |  |  |  |  |  | 336 µM |  |  |  |  | 
O=c1[nH]c(=O)n([C@@H]2O[C@H](CO)[C@@H](O)[C@H]2O)cc1F [5-Fluorouridine] | 0.28 µM | 0.44 µM | 0.7 µM | 1.57 Folds | 2.50 Folds |  | 0.33 µM | 0.29 µM |  |  |  |  |  |  |  |  |  |  | 
COc1cc(NS(C)(=O)=O)ccc1Nc1c2ccccc2nc2ccccc12 [Amsacrine] | 0.71 µM | 1.32 µM | 1.9 µM | 1.85 Folds | 2.66 Folds | 0.68 µM | 0.74 µM | 0.67 µM |  |  |  |  |  |  |  |  |  |  | 
O=NN(CCCl)C(=O)NCCCl [BCNU] | 33.5 µM | 52.2 µM | 75.6 µM | 1.56 Folds | 2.26 Folds | 34.2 µM | 36.5 µM | 33.3 µM |  |  |  |  |  |  |  |  |  |  | 
NCCCNc1ccc2c3c(nn2CCNCCO)-c2c(O)ccc(O)c2C(=O)c13 [Piroxantrone Hydrochloride] | 0.34 µM | 0.81 µM | 1.28 µM | 2.38 Folds | 3.77 Folds | 0.32 µM | 0.33 µM | 0.28 µM |  |  |  |  |  |  |  |  |  |  | 
O=c1[nH]c(=O)n([C@H]2C[C@H](O)[C@@H](CO)O2)cc1F [5-fluorodoeoxyuridine] | 0.00588 µM | 0.00903 µM | 0.0123 µM | 1.54 Folds | 2.09 Folds | 0.00711 µM | 0.0066 µM | 0.00575 µM |  |  |  |  |  |  |  |  |  |  | 
N[C@H](C(=O)O)[C@@H]1CC(Cl)=NO1 [Acivicin] | 1.58 µM | 3.34 µM | 5.52 µM | 2.11 Folds | 3.49 Folds | 1.28 µM | 1.65 µM | 1.63 µM |  |  |  |  |  |  |  |  |  |  | 
NC(=O)c1csc([C@@H]2O[C@H](CO)[C@@H](O)[C@H]2O)n1 [Tiazofurin] | 7.5 µM | 14.6 µM | 19.2 µM | 1.94 Folds | 2.57 Folds | 7.9 µM | 7.25 µM | 6.15 µM |  |  |  |  |  |  |  |  |  |  | 
O=C(CCBr)N1CCN(C(=O)CCBr)CC1 [Pipobroman] | 136 µM | 194 µM | 184 µM | 1.42 Folds | 1.35 Folds | 94 µM | 125 µM | 109 µM |  |  |  |  |  |  |  |  |  |  | 
Nc1ncn([C@@H]2O[C@H](CO)[C@@H](O)[C@H]2O)c(=O)n1 [5-Azacitidine] | 6.09 µM | 13.8 µM | 26.4 µM | 2.27 Folds | 4.33 Folds | 6.94 µM | 6.45 µM | 7.32 µM |  |  |  |  |  |  |  |  |  |  | 
Nc1nc(Cl)nc2c1ncn2[C@H]1C[C@H](O)[C@@H](CO)O1 [Cladribine] | 0.35 µM | 0.46 µM | 0.65 µM | 1.31 Folds | 1.86 Folds | 0.36 µM |  | 0.34 µM |  |  |  |  |  |  |  |  |  |  | 
Nc1nc2nc[nH]c2c(=S)[nH]1 [6-Thioguanine] | 0.28 µM | 0.96 µM | 1.44 µM | 3.43 Folds | 5.14 Folds | 0.32 µM | 0.32 µM | 0.3 µM |  |  |  |  |  |  |  |  |  |  | 
COc1cccc2c1C(=O)c1c(O)c3c(c(O)c1C2=O)C[C@@](O)(C(=O)CO)C[C@@H]3O[C@H]1C[C@H](N)[C@@H](O)[C@H](C)O1 [Epirubicin] | 0.102 µM | 0.167 µM | 0.282 µM | 1.63 Folds | 2.75 Folds | 0.12 µM | 0.122 µM | 0.137 µM |  |  |  |  |  |  |  |  |  |  | 
C/C=C1\NC(=O)[C@H]2CSSCC/C=C/[C@H](CC(=O)N[C@H](C(C)C)C(=O)N2)OC(=O)[C@H](C(C)C)NC1=O [Depsipeptide] | 0.00112 µM | 0.00155 µM | 0.00216 µM | 1.38 Folds | 1.93 Folds | 0.00103 µM | 0.00116 µM | 0.00116 µM |  |  |  |  |  |  |  |  |  |  | 
CC[C@@]1(O)C(=O)OCc2c1cc1n(c2=O)Cc2cc3c(CN(C)C)c(O)ccc3nc2-1 [Topotecan] | 0.0222 µM | 0.0311 µM | 0.0539 µM | 1.40 Folds | 2.43 Folds | 0.0217 µM | 0.0208 µM | 0.021 µM |  |  |  |  |  |  |  |  |  |  | 
N.N.O=C([O-])C1(C(=O)[O-])CCC1.[Pt+2] [Carboplatin] |  |  |  | 1.68 Folds | 4.04 Folds | 2.11 µM | 2.29 µM | 2.31 µM | 2.25 µM | 3.79 µM | 9.1 µM |  |  |  |  |  |  |  | 
CO[C@@]12[C@H](COC(N)=O)C3=C(C(=O)C(C)=C(N)C3=O)N1C[C@@H]1N[C@@H]12 [Mitomycin C] | 1.61 µM | 3.06 µM | 4.7 µM |  |  | 1.53 µM | 1.69 µM | 1.6 µM |  |  |  |  |  |  |  |  |  |  | 
CN(C)/N=N/c1[nH]cnc1C(N)=O [Dacarbazine] | 36.6 µM | 53.7 µM | 108 µM | 1.47 Folds | 2.95 Folds | 37.6 µM | 32.4 µM | 39.7 µM |  |  |  |  |  |  |  |  |  |  | 
O=C1NC(=S)NC(=O)C1C(=O)Nc1ccccc1 [Merbarone] | 23 µM | 46.7 µM | 80.8 µM | 1.67 Folds | 2.89 Folds | 28.6 µM | 24.9 µM | 29.4 µM |  |  |  |  |  |  |  |  |  |  | 
CC(=O)[C@]1(O)Cc2c(O)c3c(c(O)c2[C@@H](O[C@H]2C[C@H](N)[C@H](O)[C@H](C)O2)C1)C(=O)c1ccccc1C3=O [Idarubicin] | 0.00445 µM | 0.0119 µM | 0.0312 µM | 2.67 Folds | 7.01 Folds | 0.00505 µM |  | 0.0043 µM |  |  |  |  |  |  |  |  |  |  | 
N[C@@H](Cc1ccc(N(CCCl)CCCl)cc1)C(=O)O [Melphalan] | 4.19 µM | 12.8 µM | 24.6 µM | 3.07 Folds | 5.87 Folds | 4.02 µM | 4.48 µM | 3.97 µM |  |  |  |  |  |  |  |  |  |  | 
COc1cccc2c1C(=O)c1c(O)c3c(c(O)c1C2=O)C[C@@](O)(C(C)=O)C[C@@H]3O[C@H]1C[C@H](N)[C@H](O)[C@H](C)O1 [Daunorubicin] | 0.0295 µM | 0.0974 µM | 0.157 µM | 3.31 Folds | 5.33 Folds | 0.0291 µM | 0.0265 µM | 0.0302 µM |  |  |  |  |  |  |  |  |  |  | 
